Source: the supplement of paper PMC11616607

Legend:
Test in all cases: drug sensitivity score (DSS) from 5-point dose-response viability curve (DSS (area-under-curve based score)); higher = more sensitive (stronger growth inhibition or killing); extreme values may be limits of the assay
Conditions in all cases: exposure time: 72 h; concentration range: 5 concentrations over 10,000-fold range
HOSE1C = test system: HOSE1C
In short: (§1)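 Ovarian cancer and normal ovarian cell lines were tested in 384-well plates. Drugs were acoustically dispensed (Echo 550) in DMSO or water at five concentrations spanning a 10,000-fold range, then 1,500 cells per well were added and incubated 3 days at 37°C, 5% CO2. Viability was read by CellTiter-Glo luminescence on a PHERAstar FS. Drug sensitivity score was derived per cell line and drug with Breeze software; higher means more sensitive, zero means no response.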

Ovsaho = test system: Ovsaho
In short: as §1

Kuramochi = test system: Kuramochi
In short: as §1

OV90 = test system: OV90
In short: as §1

COV318 = test system: COV318
In short: as §1

CAOV3 = test system: CAOV3
In short: as §1

COV362 = test system: COV362
In short: as §1

HOSE2C = test system: HOSE2C
In short: as §1

OVCAR5 = test system: OVCAR5
In short: as §1

OVCAR8 = test system: OVCAR8
In short: as §1

OVCAR4 = test system: OVCAR4
In short: as §1

JHOS2 = test system: JHOS2
In short: as §1

Compound	drug sensitivity score (HOSE1C)	drug sensitivity score (Ovsaho)	drug sensitivity score (Kuramochi)	drug sensitivity score (OV90)	drug sensitivity score (COV318)	drug sensitivity score (CAOV3)	drug sensitivity score (COV362)	drug sensitivity score (HOSE2C)	drug sensitivity score (OVCAR5)	drug sensitivity score (OVCAR8)	drug sensitivity score (OVCAR4)	drug sensitivity score (JHOS2)
CO[C@H]1C[C@@H]2CC[C@@H](C)[C@@](O)(O2)C(=O)C(=O)N2CCCC[C@H]2C(=O)O[C@H]([C@H](C)C[C@@H]2CC[C@@H](OC(=O)C(C)(CO)CO)[C@H](OC)C2)CC(=O)[C@H](C)/C=C(\C)[C@@H](O)[C@@H](OC)C(=O)[C@H](C)C[C@H](C)/C=C/C=C/C=C/1C [Temsirolimus]	3.9	3	3.2	11.2	0	6.6	0	3.2	8	7.6	3.1	2.8
CC(=O)N(O)CCCCCNC(=O)CCC(=O)N(O)CCCCCNC(=O)CCC(=O)N(O)CCCCCN [Deferoxamine]	1.8	3.8	3.7	4.5	2.2	2.8	0.5	0	2.6	2.7	3.4	0.7
COc1ccc(C[C@H](NC(=O)[C@H](C)NC(=O)CN2CCOCC2)C(=O)N[C@@H](Cc2ccccc2)C(=O)C2(C)CO2)cc1 (stereo in doubt) [ONX-0914]	27.9	19.6	11.6	19.8	12.3	17.9	17.9	21.3	18.2	17.7	17.1	16.1
COc1ccc(S(=O)(=O)Nc2cccnc2Nc2ccc(O)cc2)cc1 [ABT-751]	15.8	7	7.4	9.4	7.2	14.9	4.3	10.7	10.3	11.5	5	7.1
Cc1sc2c(c1C)C(c1ccc(Cl)cc1)=N[C@@H](CC(=O)Nc1ccc(O)cc1)c1nnc(C)n1-2 [Birabresib]	15.1	12.9	12.5	10.2	1.7	13.1	2.3	13.4	10.8	12.6	8.1	5.4
Cc1[nH]nc(C(F)(F)F)c1Cc1sc2c(c1C(=O)N1C[C@](C)(O)CO1)c(=O)n(C)c(=O)n2C(C)C [AZD3965]	0	0.8	0	4.2	0	0	0	0	0	0	0	0
C=C(c1ccc(C(=O)O)cc1)c1cc2c(cc1C)C(C)(C)CCC2(C)C [Bexarotene]	0	0	0.1	1.3	0.1	1.5	0	0	0	0.1	0	1.3
CCNc1nc(Nc2cc(F)c(C(=O)N3CCOCC3)cc2OC)ncc1C(F)(F)F [GNE-7915]	0	0	0	0	0	0	0	0	0	0	0	0
Nc1nc(OCc2cc(Br)cs2)c2[nH]cnc2n1 [Lomeguatrib]	0	2.5	0.8	0	0.4	0	0	0	0	0	0	0
CNc1nc(-c2ccc3c(N)n[nH]c3c2)cc(N2C[C@@H](C(=O)NC3CCCCC3)CC[C@H]2C)n1	4.5	1.1	0.5	0	0.1	1.9	0	2.6	0	1.2	0	0.7
NC1(c2ccc(-c3nc4ccn5c(=O)[nH]nc5c4cc3-c3ccccc3)cc2)CCC1 [MK-2206]	2.1	2.6	4.4	1.9	1.2	1.9	0.4	2.6	2	0	0.4	0
CC[C@]12C=CCN3CC[C@@]4(c5cc([C@@]6(C(=O)OC)C[C@@H]7C[C@@H](C(C)(F)F)CN(Cc8c6[nH]c6ccccc86)C7)c(OC)cc5N(C)[C@H]4[C@@](O)(C(=O)OC)[C@@H]1OC(C)=O)[C@@H]32 [Vinflunine]	3.6	1.8	1.9	3.3	0.7	4.3	1.3	3.6	3.4	4.1	2.1	2.4
Cc1ccc(NC(=O)c2ccc(CN3CC[C@H](N(C)C)C3)c(C(F)(F)F)c2)cc1Nc1nccc(-c2cncnc2)n1 [Bafetinib]	0	0	0	3	0	0	0	0	0	0	0	0
CO[C@H]1C[C@@H]2CC[C@@H](C)[C@@](O)(O2)C(=O)C(=O)N2CCCC[C@H]2C(=O)O[C@H]([C@H](C)C[C@@H]2CC[C@@H](OCCO)[C@H](OC)C2)CC(=O)[C@H](C)/C=C(\C)[C@@H](O)[C@@H](OC)C(=O)[C@H](C)C[C@H](C)/C=C/C=C/C=C/1C [Everolimus]	4.3	4	5.9	10	2.2	4.8	0.6	6.3	6.2	5.5	2.5	4.7
